Data: patent publication US8604048B2, “Pyridocarbazole type compounds and applications thereof” (Centre National de la Recherche Scientifique, priority 2009, dated 2013)

Assays:
[1] = tested on: actin network of HeLa cells; experiment: Stability of the actin network to a depolymerization induced by latrunculin B; assay type: cell-based, Human
Method: 7. a step of analysis of the effect of the compound to be tested on the actin network, via incubation of HeLa cells with the compound to be tested. […] When the actin network is stabilized, the latrunculin-induced depolymerization of the actin network is limited.
The cells are grown on glass coverslips and incubated as for the tubulin staining. After elimination of the medium, the cells are washed with warm PBS then fixed, by addition of a solution of PBS/3.7% formaldehyde for 30 minutes at 37° C. The cells are washed with PBS then permeabilized with a solution of PBS/0.2% Triton X100 for 15 minutes at room temperature. After another washing with PBS, the cells are incubated with a solution of PBS/1% BSA for 30 minutes at room temperature. The cells are then incubated with phalloidin (0.165 μM final concentration) labelled with Alexa Fluor® 488 (Molecular Probes, Invitrogen) for 20 minutes at room temperature. The cells are washed a final time with PBS then dehydrated with pure ethanol. Finally, the cells are fixed to slides using a Fluorsave™ mounting solution.
8) Test for the Action on the Actin Cytoskeleton: Protocol for Evaluating, in Cells, the Stability of the Actin Network to a Depolymerization Induced by Latrunculin B
3 days before the experiment, glass coverslips are deposited under sterile conditions in 24-well microplates. In each well, HeLa cells (15 000 cells per well) in the exponential growth phase are seeded in 500 μl of RPMI medium.
PBS (phosphate buffered saline, ref. P4417, Sigma), PBS/1% BSA (bovine serum albumin, Ref. A3059, Sigma), aliquots of 15 ml, stored at −20° C.; PBS/0.2% Triton X100 (Ref. T8787, Sigma); PBS/0.01% Tween® 20 (Ref. P9916, Sigma); PBS/0.3% BSA/0.02% NaN3 (Ref. for the NaN3: 6688, Merck), aliquots of 15 ml stored at −20° C. Phalloidin A488, (Ref. A12379, Invitrogen). L4: rabbit anti-detyrosinated-tubulin polyclonal antibody (cf. Fonrose et al., Cancer Res., […], 67:3371-3378). Anti-rabbit antibody coupled to Cyanine 3 (Ref. 111.165.144, Jackson Laboratories). […]

[2] = tested on: LIMK1 activity in HeLa cells; experiment: Cellular LIMK1 activity assay (Ser3-cofilin phosphorylation, western blot); assay type: cell-based, Human; details: for Inhibition of Ser3-cofilin phosphorylation in HeLa cells: 2 h, indicated concentrations
Method: HeLa cells were treated by compounds (or equivalent amount of DMSO as control) at indicated concentrations and time. Whole cell extracts were prepared using RIPA buffer (50 mM Tris-HCl pH=7.4, 150 mM NaCl, 1% NP-40, 0.5% sodium deoxycholate, 1% SDS, 1 mM EGTA, 1 mM EDTA, 5% glycerol, 1 mM DTT) supplemented with protease inhibitors (Sigma, P8340) and phosphatase inhibitors (Sigma, P5726). About thirty micrograms of proteins were loaded and migrated through a 12% SDS-PAGE. After electro-transfer, the nitrocellulose membrane was saturated with PBS, 0.1% Tween® 20, 5% Bovin Serum Albumin. Amount and phosphorylation status of cofilin were estimated using the polyclonal antibodies anti-cofilin (Cytoskeleton, #ACFLO2) and anti-phosphocofilin (Ser3) (Cell Signaling, #3311). Goat anti-rabbit IgG-HorseRadish Peroxidase conjugated (Biosource, #ALI0404) was used as secondary antibody. Detection was performed using ECL plus western blotting detection system (GE Healthcare).
HeLa cells were treated by 25 μM Compound 1 (H06) for 2 h (lane 2). Culture medium was then discarded and fresh medium (RPMI) was added. At different times after RPMI addition (lane 3, 30 minutes; lane 4, 1 hour; lane 5, 1.5 hour; lane 6, 2 hours; lane 7, 4 hours), amount and phosphorylation status of cofilin were determined as described in Example 2. The lane 1 corresponds to time “0”, i.e. a cell extract of cells that have not been treated with Compound 1.
HeLa cells were treated by indicated concentrations of Compound 1 (or ellipticine as negative control) for 2 h.
Amount and phosphorylation status of cofilin were determined as described in Example 2. In vitro phosphorylated cofilin (left) was used as control.
HeLa cells were treated by 25 μM of Compound 1 for indicated time. Amount and phosphorylation status of cofilin were determined as described in Example 2.

| Structure (SMILES) | Protection of the actin network from depolymerization by latrunculin B ([1]; HeLa cells, confocal microscope) | Reversibility of inhibition of Ser3-cofilin phosphorylation in HeLa cells ([2]; 25 μM for 2 h, then replaced by RPMI medium) | Inhibition of Ser3-cofilin phosphorylation in HeLa cells [2] | Treatment time after which the inhibitory effect on cofilin phosphorylation is detected ([2]; HeLa, 25 μM) | Effect on the stabilization of actin microfilaments ([1]; general statement) |
| --- | --- | --- | --- | --- | --- |
| Cc1c2cc[nH]c(=O)c2c(C)c2c1[nH]c1ccc(OC(=O)c3ccccc3)cc12 [Compound 1, 9-benzoyloxy-5,11-dimethyl-2H,6H-pyrido[4,3-b]carbazol-1-one] | protects the actin network | phospho-cofilin is synthesized again | clearly inhibits the formation of phospho-cofilin, in a dose-dependent manner | 30 min | – |
| Cc1c2ccncc2c(C)c2c1[nH]c1ccccc12 [ellipticine] | – | – | does not avoid the phosphorylation of cofilin | – | does not have any effect |
